Assay [1] has as its target GST-tagged mouse Mcl-1-(152–309) (Mus musculus, UniProt P97287). The assay is described as follows: Fluorescence polarization competitive binding assay, GST-Mcl-1 / FITC-Bim-BH3. Particulars: FP; for inhibition at 50 µM: compound at 50 µM; for IC50: GST-Mcl-1 and fluorescein-labeled Bim BH3 peptide, read-out: IC50 on Mcl-1. On the technique in general: In fluorescence polarisation assays a small probe gives low polarisation when free and higher when bound to something large.

The target of assay [2] is T1, Mcl-1 (Mus musculus, UniProt P97287). Put plainly: Multifragment KTGS screen against Mcl-1 (5 TA x 38 SZ per well), LC-MS/MS. Particulars: multifragment KTGS, 190 combinations per well, 10 μM Mcl-1, 20 μM each fragment, pH 7.4, 37 °C, 10 h; peak area with protein / without protein.
T1 sequence (P97287 whole entry, the tested form may be a part): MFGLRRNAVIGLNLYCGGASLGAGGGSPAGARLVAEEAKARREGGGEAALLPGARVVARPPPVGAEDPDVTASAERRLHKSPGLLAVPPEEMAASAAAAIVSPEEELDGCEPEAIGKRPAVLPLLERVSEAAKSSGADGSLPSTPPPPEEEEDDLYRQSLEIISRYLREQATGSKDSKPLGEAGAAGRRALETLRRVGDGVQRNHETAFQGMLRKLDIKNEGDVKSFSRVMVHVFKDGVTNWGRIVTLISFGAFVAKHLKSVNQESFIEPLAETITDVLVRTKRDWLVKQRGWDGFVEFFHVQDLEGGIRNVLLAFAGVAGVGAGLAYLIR
Assay [3] has as its target T1, Mcl-1. The assay is described as follows: Binary KTGS incubation (1 TA x 1 SZ) with Mcl-1, LC-MS/MS. Particulars: binary incubation mixtures with and without Mcl-1.

Structures are written as SMILES. Where only a bound is given, the exact number is not on record here.

Chain of GST-tagged mouse Mcl-1-(152–309) (P97287 152-309): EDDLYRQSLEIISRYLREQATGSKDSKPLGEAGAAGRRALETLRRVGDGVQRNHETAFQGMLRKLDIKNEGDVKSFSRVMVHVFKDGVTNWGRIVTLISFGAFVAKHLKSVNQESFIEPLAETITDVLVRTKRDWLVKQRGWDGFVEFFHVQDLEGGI

As a reminder, the inhibition is the percentage by which the read-out fell short of the control. As for `NS(=O)(=O)c1ccc(CN(CCSc2ccccc2)Cc2ccc(S(=O)(=O)NC(=O)Cn3c4ccccc4c4ccccc43)cc2)cc1` [SZ10TA15, O=C(NS(C1=CC=C(CN(CC2=CC=C(S(=O)(N)=O)C=C2)CCSC3=CC=CC=C3)C=C1)(=O)=O)CN4C(C=CC=C5)=C5C6=C4C=CC=C6], in assay [1], at 50 µM the inhibition was 37.4%. In addition, the “Amplification coefficient 5TA x 38SZ” value at Mcl-1 [2] was found to be 10. On Mcl-1 [3], the “Amplification coefficient 1TA x 1SZ” value turned out to be 8.

Molecule `COc1cccc(CN(CCSc2ccccc2)Cc2ccc(S(=O)(=O)NC(=O)c3ccc(-c4ccccn4)cc3)cc2)c1` [SZ17TA25, O=C(NS(C1=CC=C(CN(CCSC2=CC=CC=C2)CC3=CC(OC)=CC=C3)C=C1)(=O)=O)C4=CC=C(C5=NC=CC=C5)C=C4] had an inhibition at 50 µM in assay [1] of 93.6%. Further, the “Amplification coefficient 5TA x 38SZ” value on Mcl-1 [2] is reported as 7. In addition, the “Amplification coefficient 1TA x 1SZ” value at Mcl-1 [3] is recorded as 4.

In assay [1], `CC(C)(C)c1ccc(-c2ccc(S(=O)(=O)NC(=O)c3ccc4c(ccn4Cc4ccc(C(F)(F)F)cc4C(F)(F)F)c3)cc2)cc1` [SZ11TA30, O=C(NS(C1=CC=C(C2=CC=C(C(C)(C)C)C=C2)C=C1)(=O)=O)C3=CC(C=CN4CC5=CC=C(C(F)(F)F)C=C5C(F)(F)F)=C4C=C3] returned an inhibition at 50 µM of 63.6%. For the same molecule, the “Amplification coefficient 5TA x 38SZ” value at Mcl-1 [2] turned out to be 12. For the same molecule, at Mcl-1 [3], the “Amplification coefficient 1TA x 1SZ” value is listed as 7.

As usually defined, the IC50 is the concentration needed to halve the response being measured. Take `Cc1nc(-c2ccccc2)sc1C(=O)NS(=O)(=O)c1ccc(CN(CCSc2ccccc2)Cc2ccc3c(c2)OCO3)cc1` [SZ31TA3, O=C(NS(C1=CC=C(CN(CCSC2=CC=CC=C2)CC3=CC(OCO4)=C4C=C3)C=C1)(=O)=O)C5=C(C)N=C(C6=CC=CC=C6)S5]: in assay [1], the IC50 was 9.4 µM and the inhibition at 50 µM was above 99%. In addition, the “Amplification coefficient 5TA x 38SZ” value at Mcl-1 [2] turned out to be 15. Moreover, the “Amplification coefficient 1TA x 1SZ” value on Mcl-1 [3] was 7.

With `COc1ccc(Cc2ccc(C(=O)NS(=O)(=O)c3ccc(CN(CCSc4ccccc4)Cc4c(F)cccc4Cl)cc3)cc2)c(OC)c1OC` [SZ15TA24, O=C(NS(C1=CC=C(CN(CCSC2=CC=CC=C2)CC3=C(F)C=CC=C3Cl)C=C1)(=O)=O)C4=CC=C(CC5=CC=C(OC)C(OC)=C5OC)C=C4], 50 µM produced 70.8% inhibition in assay [1]. In addition, the “Amplification coefficient 5TA x 38SZ” value on Mcl-1 [2] was 20. Moreover, at Mcl-1 [3], the “Amplification coefficient 1TA x 1SZ” value was 15.

Regarding `COc1cccc(CN(CCSc2ccccc2)Cc2ccc(S(=O)(=O)NC(=O)c3ccc(OC(F)(F)F)cc3)cc2)c1` [SZ17TA8, O=C(NS(C1=CC=C(CN(CCSC2=CC=CC=C2)CC3=CC(OC)=CC=C3)C=C1)(=O)=O)C4=CC=C(OC(F)(F)F)C=C4], in assay [1], the IC50 came out at 8.4 µM and the inhibition at 50 µM was above 99%. The “Amplification coefficient 5TA x 38SZ” value on Mcl-1 [2] came out at 8. The “Amplification coefficient 1TA x 1SZ” value on Mcl-1 [3] turned out to be 4.

With `COc1cccc(CN(CCSc2ccccc2)Cc2ccc(S(=O)(=O)NC(=O)Cn3c4ccccc4c4ccccc43)cc2)c1` [SZ17TA15, O=C(NS(C1=CC=C(CN(CC2=CC(OC)=CC=C2)CCSC3=CC=CC=C3)C=C1)(=O)=O)CN4C(C=CC=C5)=C5C6=C4C=CC=C6], the inhibition at 50 µM in assay [1] is 60.6%. In addition, at Mcl-1 [2], the “Amplification coefficient 5TA x 38SZ” value stood at 13. Further, at Mcl-1 [3], the “Amplification coefficient 1TA x 1SZ” value is on record as 4.

For the molecule `[N-]=[N+]=NS(=O)(=O)c1ccc(CN(CCSc2ccccc2)Cc2ccc(S(=O)(=O)NC(=O)c3ccc(CCc4ccccn4)cc3)cc2)cc1` [SZ9TA17, O=C(NS(C1=CC=C(CN(CC2=CC=C(S(=O)(N=[N+]=[N-])=O)C=C2)CCSC3=CC=CC=C3)C=C1)(=O)=O)C4=CC=C(CCC5=NC=CC=C5)C=C4], in assay [1], the IC50 was 20.4 µM and the inhibition at 50 µM is above 99%. Besides, the “Amplification coefficient 5TA x 38SZ” value on Mcl-1 [2] worked out at 22. Further, the “Amplification coefficient 1TA x 1SZ” value on Mcl-1 [3] is listed as 18.

For `Cn1cc(C(=O)c2cccs2)c2cc(C(=O)NS(=O)(=O)CCN(CCSc3ccccc3)Cc3ccc4c(c3)OCO4)ccc21` [SZ28TA45, O=C(NS(CCN(CC1=CC=C(OCO2)C2=C1)CCSC3=CC=CC=C3)(=O)=O)C4=CC(C(C(C5=CC=CS5)=O)=CN6C)=C6C=C4], the inhibition at 50 µM in assay [1] turned out to be 54%. On Mcl-1 [2], the “Amplification coefficient 5TA x 38SZ” value was 8. Moreover, the “Amplification coefficient 1TA x 1SZ” value on Mcl-1 [3] worked out at 5.

As for `O=C(NS(=O)(=O)c1ccc(-c2ccc(C(F)(F)F)cc2)cc1)c1cccc(NCCc2ccccc2)c1` [SZ16TA44, O=C(NS(C1=CC=C(C2=CC=C(C(F)(F)F)C=C2)C=C1)(=O)=O)C3=CC(NCCC4=CC=CC=C4)=CC=C3], in assay [1], the IC50 was determined as 31.5 µM and 50 µM produced 98.1% inhibition. The “Amplification coefficient 5TA x 38SZ” value at Mcl-1 [2] was found to be 12. Besides, the “Amplification coefficient 1TA x 1SZ” value on Mcl-1 [3] is on record as 4.

(Values after publication PMC10620989, “Going beyond Binary: Rapid Identification of Protein–Protein Interaction Modulators Using a Multifragment Kinetic Target-Guided Synthesis Approach” (Journal of Medicinal Chemistry, 2023).)
